For 26 molecules, Ki results are on record in patent publication US20230129359A1, “MUSCARINIC RECEPTOR 4 ANTAGONISTS AND METHODS OF USE” (Neurocrine Biosciences, Inc., priority 2020, published 2023).

The target in the assay is T1, human M4 receptor (Homo sapiens, UniProt P08173).
T1 construct: expressed in transfected cells; host or cells: CHO cells
T1 sequence (P08173 1-479): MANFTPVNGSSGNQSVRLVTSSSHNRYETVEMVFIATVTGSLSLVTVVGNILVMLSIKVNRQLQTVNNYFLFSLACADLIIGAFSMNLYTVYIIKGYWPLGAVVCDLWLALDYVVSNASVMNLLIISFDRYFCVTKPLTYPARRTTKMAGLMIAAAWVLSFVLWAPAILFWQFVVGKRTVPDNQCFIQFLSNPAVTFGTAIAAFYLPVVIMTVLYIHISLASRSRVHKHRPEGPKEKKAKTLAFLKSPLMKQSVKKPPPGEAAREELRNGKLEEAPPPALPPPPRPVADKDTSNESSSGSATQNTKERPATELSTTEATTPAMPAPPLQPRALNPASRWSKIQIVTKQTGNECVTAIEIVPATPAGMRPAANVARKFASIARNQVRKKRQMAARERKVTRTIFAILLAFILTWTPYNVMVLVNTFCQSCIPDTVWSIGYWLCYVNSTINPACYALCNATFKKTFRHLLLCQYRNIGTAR
Description: Radioligand ([3H]N-methylscopolamine) binding assay, membranes from CHO cells expressing human M4 receptor. As to conditions: Ki against human M4 receptor; membranes from CHO cells; tritiated N-methylscopolamine 1.5 nM; read-out: K. The essentials: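 Competition binding used CHO-cell membranes expressing human M4 with 1.5 nM [3H]N-methylscopolamine and twelve compound concentrations ([…]). Incubation was 90 minutes at 37 °C in 50 mM HEPES, 100 mM NaCl, 5 mM MgCl2, 1 mM EDTA, pH 7.4. Bound ligand was collected by filtration onto PEI-treated glass fibre for Ki.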
Take `C[C@@H]1CN(c2ncc(F)cn2)C[C@H](C)N1C(=O)OC1CC2(C1)CN(Cc1ccc(F)cc1)C2` [Compound 468, 2-[(4-fluorophenyl)methyl]-2-azaspiro[3.3]heptan-6-yl (2R,6S)-4-(5-fluoropyrimidin-2-yl)-2,6-dimethylpiperazine-1-carboxylate]: the Ki was 0.01 to 0.1 µM.

For the molecule `C[C@@H]1CN(c2ncc(C(F)(F)F)cn2)C[C@H](C)N1C(=O)NC1CC2(C1)CN(Cc1ccc(Cl)cc1)C2` [Compound 325, (2R,6S)-N-{2-[(4-chlorophenyl)methyl]-2-azaspiro[3.3]heptan-6-yl}-2,6-dimethyl-4-[5-(trifluoromethyl)pyrimidin-2-yl]piperazine-1-carboxamide], the Ki was under 0.01 µM.

As to `C[C@@H]1CN(c2nc3ccc(F)cc3s2)[C@@H](C)CN1C(=O)OC1CC2(C1)CN(Cc1ccccc1)C2` [Compound 370, 2-benzyl-2-azaspiro[3.3]heptan-6-yl (2R,5S)-4-(6-fluoro-1,3-benzothiazol-2-yl)-2,5-dimethylpiperazine-1-carboxylate], the Ki was under 0.01 µM.

For `C[C@@H]1CN(c2cnc(C(F)(F)F)cn2)C[C@H](C)N1C(=O)OC1(C)CC2(CN(Cc3ccccc3)C2)C1` [Compound 353, 2-benzyl-6-methyl-2-azaspiro[3.3]heptan-6-yl (2R,6S)-2,6-dimethyl-4-[5-(trifluoromethyl)pyrazin-2-yl]piperazine-1-carboxylate], the Ki was 0.01 to 0.1 µM.

Consider `C[C@@H]1CN(c2ncc(C(F)(F)F)cn2)[C@@H](C)CN1C(=O)NC1CC2(C1)CN(Cc1ccc(F)cc1)C2` [Compound 265, (2R,5S)-N-{2-[(4-fluorophenyl)methyl]-2-azaspiro[3.3]heptan-6-yl}-2,5-dimethyl-4-[5-(trifluoromethyl)pyrimidin-2-yl]piperazine-1-carboxamide], for which the Ki lay within 0.01 to 0.1 µM.

As for `C#Cc1cnc(N2C[C@@H](C)N(C(=O)OC3CC4(C3)CN(Cc3ccccc3)C4)[C@@H](C)C2)nc1` [Compound 508, 2-benzyl-2-azaspiro[3.3]heptan-6-yl (2R,6S)-4-(5-ethynylpyrimidin-2-yl)-2,6-dimethylpiperazine-1-carboxylate], the Ki is 0.01 to 0.1 µM.

Turning to `C[C@@H]1CN(c2ncc3ccccc3n2)CCN1C(=O)NC1CC2(C1)CN(Cc1ccccc1)C2` [Compound 213, (2R)-N-{2-benzyl-2-azaspiro[3.3]heptan-6-yl}-2-methyl-4-(quinazolin-2-yl)piperazine-1-carboxamide], the Ki fell in the range of 0.01 to 0.1 µM.

For the molecule `C[C@@H]1CN(c2ncc(C(F)(F)F)cn2)C[C@H](C)N1C(=O)NC1CC2(C1)CN(Cc1ccc([N+](=O)[O-])cc1)C2` [Compound 314, (2R,6S)-2,6-dimethyl-N-{2-[(4-nitrophenyl)methyl]-2-azaspiro[3.3]heptan-6-yl}-4-[5-(trifluoromethyl)pyrimidin-2-yl]piperazine-1-carboxamide], the Ki fell in the range of 0.01 to 0.1 µM.

As to `C[C@@H]1CN(c2cnc3ccccc3n2)C[C@@H](C)N1C(=O)OC1CC2(C1)CN(Cc1ccccc1)C2` [Compound 185, 2-benzyl-2-azaspiro[3.3]heptan-6-yl (2R,6R)-2,6-dimethyl-4-(quinoxalin-2-yl)piperazine-1-carboxylate], the Ki lay in the range of 0.1 to 1 µM.

As to `C[C@@H]1CN(c2ncc(Cl)cn2)C[C@H](C)N1C(=O)OC1CC2(C1)CN(Cc1ccccc1)C2` [Compound 278, 2-benzyl-2-azaspiro[3.3]heptan-6-yl (2R,6S)-4-(5-chloropyrimidin-2-yl)-2,6-dimethylpiperazine-1-carboxylate], the Ki was 0.01 to 0.1 µM.

With `COC(=O)c1cnc(N2C[C@@H](C)N(C(=O)OC3CC4(C3)CN(Cc3ccccc3)C4)[C@H](C)C2)nc1C(F)(F)F` [Compound 171, methyl 2-[(3R,5R)-4-[({2-benzyl-2-azaspiro[3.3]heptan-6-yl}oxy)carbonyl]-3,5-dimethylpiperazin-1-yl]-4-(trifluoromethyl)pyrimidine-5-carboxylate], the Ki was under 0.01 µM.

As to `C[C@@H]1CN(c2cnc(OC(F)(F)F)cn2)[C@H](C)CN1C(=O)OC1CC2(C1)CN(Cc1ccccc1)C2` [Compound 205, 2-benzyl-2-azaspiro[3.3]heptan-6-yl (2R,5R)-2,5-dimethyl-4-[5-(trifluoromethoxy)pyrazin-2-yl]piperazine-1-carboxylate], the Ki was in the range of 0.01 to 0.1 µM.

As for `C[C@@H]1CN(c2ncc(C(F)(F)F)cn2)C[C@@H](C)N1C(=O)NC1CC2(C1)CN(Cc1ccccc1)C2` [Compound 65, (2R,6R)-N-{2-benzyl-2-azaspiro[3.3]heptan-6-yl}-2,6-dimethyl-4-[5-(trifluoromethyl)pyrimidin-2-yl]piperazine-1-carboxamide], the Ki is under 0.01 µM.

Consider `C[C@@H]1CN(c2cnc(C(F)(F)F)cn2)[C@@H](C)CN1C(=O)OC1CC2(C1)CN(Cc1ccc(F)cc1)C2` [Compound 400, 2-[(4-fluorophenyl)methyl]-2-azaspiro[3.3]heptan-6-yl (2R,5S)-2,5-dimethyl-4-[5-(trifluoromethyl)pyrazin-2-yl]piperazine-1-carboxylate], for which the Ki lay in the range of 0.01 to 0.1 µM.

As for `O=C(OC1CC2(C1)CN(Cc1ccccc1)C2)N1CCN(c2ccc(OC(F)(F)F)cc2)CC1` [Compound 108, 2-benzyl-2-azaspiro[3.3]heptan-6-yl 4-[4-(trifluoromethoxy)phenyl]piper-azine-1-carboxylate], the Ki is 0.1 to 1 µM.

As for `C[C@@H]1CN(c2cnc(C(F)(F)F)cn2)CCN1C(=O)OC1CC2(C1)CN(Cc1ccc(F)cc1)C2` [Compound 458, 2-[(4-fluorophenyl)methyl]-2-azaspiro[3.3]heptan-6-yl (2R)-2-methyl-4-[5-(trifluoromethyl)pyrazin-2-yl]piperazine-1-carboxylate], the Ki was 0.01 to 0.1 µM.

`C[C@@H]1CN(c2nc3ccc(F)cc3o2)C[C@@H](C)N1C(=O)OC1CC2(C1)CN(Cc1ccccc1)C2` [Compound 445, 2-benzyl-2-azaspiro[3.3]heptan-6-yl (2R,6R)-4-(6-fluoro-1,3-benzoxazol-2-yl)-2,6-dimethylpiperazine-1-carboxylate]: the Ki lay within 0.01 to 0.1 µM.

Consider `C[C@@H]1CN(c2ncc3ccccc3n2)C[C@H](C)N1C(=O)OC1CC2(C1)CN(Cc1ccccc1)C2` [Compound 377, 2-benzyl-2-azaspiro[3.3]heptan-6-yl (2R,6S)-2,6-dimethyl-4-(quinazolin-2-yl)piperazine-1-carboxylate], for which the Ki fell in the range of 0.1 to 1 µM.

On to `C[C@@H]1CN(c2ncc(F)cn2)C[C@@H](C)N1C(=O)OC1CC2(C1)CN(Cc1ccccc1)C2` [Compound 158, 2-benzyl-2-azaspiro[3.3]heptan-6-yl (2R,6R)-4-(5-fluoropyrimidin 2-yl)-2,6-dimethylpiperazine-1-carboxylate], for which the Ki fell in the range of 0.1 to 1 µM.

On to `C[C@@H]1CN(c2ncc(OC(F)F)cn2)C[C@H](C)N1C(=O)OC1CC2(C1)CN(Cc1ccccc1)C2` [Compound 462, 2-benzyl-2-azaspiro[3.3]heptan-6-yl (2R,6S)-4-[5-(difluoromethoxy)pyrimidin-2-yl]-2,6-dimethylpiperazine-1-carboxylate], for which the Ki is under 0.01 µM.

For the molecule `COc1ccc(N2C[C@@H](C)N(C(=O)OC3CC4(C3)CN(Cc3ccccc3)C4)[C@@H](C)C2)cc1` [Compound 524, 2-benzyl-2-azaspiro[3.3]heptan-6-yl (2R,6S)-4-(4-methoxyphenyl)-2,6-dimethylpiperazine-1-carboxylate], the Ki lay within 0.1 to 1 µM.

With `C[C@@H]1CN(c2ncc(C(F)(F)F)cn2)CCN1C(=O)OC1CC2(C1)CN(Cc1ccc(F)cc1)C2` [Compound 457, 2-[(4-fluorophenyl)methyl]-2-azaspiro[3.3]heptan-6-yl (2R)-2-methyl-4-[5-(trifluoromethyl)pyrimidin-2-yl]piperazine-1-carboxylate], the Ki lay in the range of 0.1 to 1 µM.

Take `COc1ccc2nc(N3C[C@@H](C)N(C(=O)OC4CC5(C4)CN(Cc4ccc(F)cc4)C5)C[C@@H]3C)cnc2c1` [Compound 396, 2-[(4-fluorophenyl)methyl]-2-azaspiro[3.3]heptan-6-yl (2R,5S)-4-(6-methoxyquinoxalin-2-yl)-2,5-dimethylpiperazine-1-carboxylate]: the Ki fell in the range of 0.01 to 0.1 µM.

On to `C[C@@H]1CN(c2ncc(C(F)(F)F)cc2F)C[C@H](C)N1C(=O)NC1CC2(C1)CN(Cc1ccccc1)C2` [Compound 227, (2R,6S)-N-{2-benzyl-2-azaspiro[3.3]heptan-6-yl}-4-[3-fluoro-5-(trifluoromethyl)pyridin-2-yl]-2,6-dimethylpiperazine-1-carboxamide], for which the Ki is under 0.01 µM.

On to `C[C@@H]1CN(c2cncc(C(F)(F)F)n2)C[C@@H](C)N1C(=O)OC1CC2(C1)CN(Cc1ccccc1)C2` [Compound 166, 2-benzyl-2-azaspiro[3.3]heptan-6-yl (2R,6R)-2,6-dimethyl-4-[6-(trifluoromethyl)pyrazin-2-yl]piperazine-1-carboxylate], for which the Ki was 0.1 to 1 µM.

For `C[C@@H]1CN(c2nc3ccc(C(F)(F)F)cc3o2)[C@@H](C)CN1C(=O)OC1CC2(C1)CN(Cc1ccccc1)C2` [Compound 430, 2-benzyl-2-azaspiro[3.3]heptan-6-yl (2R,5S)-2,5-dimethyl-4-[6-(trifluoromethyl)-1,3-benzoxazol-2-yl]piperazine-1-carboxylate], the Ki is under 0.01 µM.
